The record followed here is patent US20230357179A1, “RAF KINASE INHIBITORS AND METHODS OF USE THEREOF” (Deciphera Pharmaceuticals, LLC, priority 2021, published 2023).

pIC50: −log10 of the molar value.

The subject of one assay is Miapaca-2 cells. The experiment in a line: MiaPaca-2 cell proliferation assay (1), resazurin, 96-well. The class given is cell-based. Particulars: Homo sapiens, MIA PaCa-2, inhibition of cell proliferation. Summed up: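 Three thousand cells per well in DMEM with 10% FBS and 2.5% horse serum exposed to serially diluted compound in triplicate for 67-72 h at 37 °C, 5% CO2. Viability by resazurin (additional 5-6 h), fluorescence ex 540/em 600 nm; IC50 calculated.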
For orientation: Resazurin is reduced to fluorescent resorufin, in cell work by metabolically active cells.

The target in the next assay is T1, C-Raf kinase (Homo sapiens, UniProt P04049, Y340D/Y341D).
T1 construct: Y340D,; GST (N); purchased Sigma
The experiment in a line: Biochemical assay for C-Raf.1 (coupled pyruvate kinase/lactate dehydrogenase). Particulars: read-out: CRAF.1 IC50. Put shortly:
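NADH depletion at 340 nm monitored continuously for 6 h at 30° C, with rates taken over 4–5 h. The coupled pyruvate kinase/lactate dehydrogenase reaction used 1 mM ATP, 30.1 nM MEK substrate and 0.43 nM kinase at pH 7.5. IC50 was fitted sigmoidally from percent inhibition of serially diluted compound.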

A further assay concerns A375 cells. The assay can be described thus: A375 cell proliferation assay (1), resazurin, 96-well. The class given is cell-based. Particulars: Homo sapiens, A-375, inhibition of cell proliferation. Put shortly:
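Viability was read by resazurin fluorescence at 540 nm excitation and 600 nm emission, using a 440 μM solution added for 5–6 h at the end of culture. IC50 came from the curve fit.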

The target of another assay is T2, B-Raf (V600E) kinase (Homo sapiens, UniProt P15056, V600E).
T2 construct: B-Raf (V600E) residues 416-766 with a; GST (N); purchased SignalChem
The assay can be described thus: Biochemical assay for B-Raf (V600E).1 (coupled pyruvate kinase/lactate dehydrogenase). The following applies: read-out: BRAF V600E.1 IC50. Put shortly: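 IC50 came from four-parameter sigmoidal fits of percent inhibition, using reaction rates over 3-4 h. Continuous A340 reading (6 h, 30 °C) of a pyruvate kinase/lactate dehydrogenase-coupled reaction: B-Raf V600E 0.03 nM, MEK 30.1 nM, ATP 1 mM, Tris pH 7.5, 1% DMSO.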

T1 sequence (P04049 307-648 Y340D/Y341D): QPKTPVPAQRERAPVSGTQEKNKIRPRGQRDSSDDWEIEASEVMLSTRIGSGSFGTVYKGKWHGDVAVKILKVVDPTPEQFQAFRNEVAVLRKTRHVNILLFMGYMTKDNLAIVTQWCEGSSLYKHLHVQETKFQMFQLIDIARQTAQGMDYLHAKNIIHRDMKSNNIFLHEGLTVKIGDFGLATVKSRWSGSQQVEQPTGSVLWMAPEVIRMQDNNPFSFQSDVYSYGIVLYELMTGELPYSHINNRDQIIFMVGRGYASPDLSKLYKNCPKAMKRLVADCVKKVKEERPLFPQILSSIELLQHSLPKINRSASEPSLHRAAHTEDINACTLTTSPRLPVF
T2 sequence (P15056 416-766 V600E): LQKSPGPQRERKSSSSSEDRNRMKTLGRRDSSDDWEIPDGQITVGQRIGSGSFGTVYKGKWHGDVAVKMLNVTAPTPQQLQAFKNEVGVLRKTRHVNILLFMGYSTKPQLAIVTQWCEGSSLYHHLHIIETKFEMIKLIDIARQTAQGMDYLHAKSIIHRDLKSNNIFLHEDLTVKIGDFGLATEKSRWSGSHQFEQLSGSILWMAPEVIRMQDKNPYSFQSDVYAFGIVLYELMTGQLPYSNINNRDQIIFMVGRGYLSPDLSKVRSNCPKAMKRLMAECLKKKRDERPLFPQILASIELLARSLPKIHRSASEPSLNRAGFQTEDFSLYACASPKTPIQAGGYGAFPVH

Usually pIC50 stands for the IC50 on a negative log10 scale, so that one unit is a factor of ten. Regarding `CNC(=O)c1cc(-c2cccc(-c3cc(NC(=O)NCCC(C)(C)OC)c(F)cc3C)c2)ccn1` [Example 72], the pIC50 in the assay on Miapaca-2 cells is 5.00 to 6.00; at C-Raf kinase, no less than 7.00; in the assay with A375 cells, 5.00 to 6.00; on B-Raf (V600E) kinase, no less than 7.00.

For the molecule `COC(C)(C)CCNC(=O)Nc1cc(-c2cccc(-c3ccnc(NC(C)=O)c3)c2)c(C)cc1F` [Example 71], the pIC50 with Miapaca-2 cells is 5.00 to 6.00; on C-Raf kinase, no less than 7.00; with A375 cells, 5.00 to 6.00; on B-Raf (V600E) kinase it was no less than 7.00.

Consider `Cc1ccc(NC(=O)N2CC[C@@H](C(F)(F)F)C2)cc1-c1cccc(-c2cc(NC(=O)C3CC3)ncn2)c1` [Example 201], for which the pIC50 is 5.00 to 6.00 in the assay with Miapaca-2 cells, no less than 7.00 on C-Raf kinase, 6.00 to 6.30 in the assay on A375 cells and no less than 7.00 on B-Raf (V600E) kinase.

For `Cc1ncc(NC(=O)NCCC2(C)CC2)cc1-c1nccc(-c2ccnc(NC(=O)C3CC3)c2)n1` [Example 81], the pIC50 was 5.00 to 6.00 with Miapaca-2 cells, no less than 7.00 on C-Raf kinase, 5.00 to 6.00 in the assay with A375 cells and no less than 7.00 on B-Raf (V600E) kinase.

`Cc1ccc(NC(=O)N2CC[C@H](C(F)(F)F)C2)cc1-c1cccc(-c2cc(NC(=O)C3CC3)ncn2)c1` [Example 200]: the pIC50 is 5.00 to 6.00 in the assay on Miapaca-2 cells, no less than 7.00 at C-Raf kinase, 6.30 to 7.00 in the assay with A375 cells and no less than 7.00 on B-Raf (V600E) kinase.

As to `COC(=O)Nc1cc(-c2cc(-c3cc(NC(=O)N4CC[C@H](C(F)(F)F)C4)ccc3C)nc(C)n2)ccn1` [Example 223], the pIC50 at C-Raf kinase is 6.30 to 7.00; in the assay with A375 cells, 5.00 to 6.00; at B-Raf (V600E) kinase, less than 6.00.

On to `Cc1ccc(NC(=O)N2CC[C@H](C(C)C)C2)cc1-c1cncc(-c2cc(NC(=O)C3CC3)ncn2)c1` [Example 221], for which the pIC50 was 6.00 to 6.30 with Miapaca-2 cells, no less than 7.00 on C-Raf kinase, no less than 7.00 with A375 cells and no less than 7.00 at B-Raf (V600E) kinase.

Turning to `Cc1ccc(NC(=O)N2CC[C@@H](C(F)(F)F)C2)cc1-c1cncc(-c2ccnc(NC(=O)C3CC3)c2)c1` [Example 196], the pIC50 is no less than 7.00 on C-Raf kinase, 5.00 to 6.00 in the assay with A375 cells and no less than 7.00 on B-Raf (V600E) kinase.

Turning to `Cc1ccc(NC(=O)N2CCC3(CC3)C2)cc1-c1cncc(-c2cc(NC(=O)C3CC3)ncn2)c1` [Example 218], the results for the pIC50 on C-Raf kinase, in the assay with A375 cells and on B-Raf (V600E) kinase were no less than 7.00, 6.30 to 7.00 and no less than 7.00, respectively.

`COC(=O)Nc1cc(-c2cc(-c3cc(NC(=O)N4CCC(C(F)(F)F)C4)ccc3C)cc(OCCO)n2)ccn1` (stereo not drawn) [Example 222]: the pIC50 is no less than 7.00 on C-Raf kinase, 6.30 to 7.00 in the assay on A375 cells and no less than 7.00 at B-Raf (V600E) kinase.

On to `COC(=O)Nc1cc(-c2cncc(-c3cc(NC(=O)N4CCCC4)ccc3C)c2)ccn1` [Example 213], for which the pIC50 at C-Raf kinase was 6.00 to 6.30; with A375 cells, 5.00 to 6.00; at B-Raf (V600E) kinase, 6.00 to 6.30.

Consider `COC(=O)Nc1cc(-c2nc(OCCO)cc(-c3cc(NC(=O)NC4CC(C)(C)C4)cnc3C)n2)ccn1` [Example 174], for which the pIC50 was no less than 7.00 at C-Raf kinase, 5.00 to 6.00 in the assay on A375 cells and no less than 7.00 at B-Raf (V600E) kinase.

For `CC(=O)Nc1cc(-c2cc(-c3cc(NC(=O)NCCC4(C)CC4)c(F)cc3C)cc(NCCO)n2)ccn1` [Example 175], the values for the pIC50 at C-Raf kinase, with A375 cells and on B-Raf (V600E) kinase were no less than 7.00, 6.30 to 7.00 and no less than 7.00, respectively.

On to `CNC(=O)c1cc(-c2cnnc(-c3cc(NC(=O)N4CCC5(CC5)C4)ccc3C)c2)ccn1` [Example 178], for which the pIC50 on C-Raf kinase was 6.00 to 6.30; in the assay with A375 cells, 5.00 to 6.00; at B-Raf (V600E) kinase, no less than 7.00.

In the case of `COC(=O)Nc1cc(-c2cc(-c3cc(NC(=O)NCCC4(C)CC4)c(F)cc3F)cc(OCCO)n2)ccn1` [Example 188], the pIC50 at C-Raf kinase was no less than 7.00; in the assay with A375 cells, 6.00 to 6.30; at B-Raf (V600E) kinase, no less than 7.00.

On to `COC[C@@H]1CCN(C(=O)Nc2cnc(C)c(-c3ccnc(-c4ccnc(NC(=O)OC)c4)c3)c2)C1` [Example 179], for which the pIC50 was 6.30 to 7.00 on C-Raf kinase, 5.00 to 6.00 with A375 cells and no less than 7.00 at B-Raf (V600E) kinase.

Regarding `COC[C@H]1CCN(C(=O)Nc2cnc(C)c(-c3ccnc(-c4ccnc(NC(=O)OC)c4)c3)c2)C1` [Example 176], the pIC50 at C-Raf kinase was 6.30 to 7.00; in the assay on A375 cells it was 5.00 to 6.00; at B-Raf (V600E) kinase, no less than 7.00.

With `CNC(=O)c1cc(-c2cnnc(-c3cc(NC(=O)N4CC[C@H](OC)C4)ccc3C)c2)ccn1` [Example 177], the figures for the pIC50 on C-Raf kinase, in the assay with A375 cells and on B-Raf (V600E) kinase were less than 6.00, 5.00 to 6.00 and 6.30 to 7.00, respectively.
